From US10656142B2, “Measuring antiplatelet activity” (Melaleuca, Inc., priority 2014, dated 2020)

Test system: platelets
Assay: Rate of platelet superoxide production during oscillatory shear stress (EPR with CAT1H spin probe) in platelet rich plasma, before and after supplementation
Type: in vivo, Human
Conditions: 24 healthy volunteers; measured before and 10 hours after supplementation; Provex CV single or double daily dose, aspirin 325 mg; randomized, single-blind, cross-over study
Method: Human venous blood was collected via a low-pressure protocol. A manual blood pressure cuff was applied to the arm with a maximum pressure of 40 mmHg. The first sodium citrate vacutainer (75 USP Units, 4 mL) was discarded, and three more were then filled. Blood was centrifuged at 100 g for 19 minutes with no active braking mechanism. Centrifuged blood was then allowed to sit for 20 to 30 minutes. […] An initial 30 μL sample was taken via glass capillary tube for a baseline reading. The SSC was started, and an initial, 5 point kinetic sample was measured. […]
Amplitude readings were recalculated into μM, and a graph depicting μM/min was prepared. […]
24 healthy volunteers were supplemented with the test composition (Provex CV®) at two different dosages (single or double daily dose) or aspirin (325 mg) in a randomized, single-blind, cross-over study. The rate of superoxide production during shear stress was measured before and 10 hours after supplementation.

Question: `CC(=O)Oc1ccccc1C(=O)O` [aspirin] was tested. Which “inhibition of platelet activation (rate of superoxide production during shear stress)” value did it give?
Answer: Its value is “no effect observed”.
